Test results from PMC8400200, “Selective Moonlighting Cell-Penetrating Peptides” (Pharmaceutics, 2021).
Entries after “also recorded” stand apart in the source; their conditions may differ.

Key:
[1] = tested on: HEK293T, HEK293T-NEP and HeLa cells; assay: Internalization assay, epifluorescence microscopy, compared or averaged over the three cell lines; format: cell-based; details: for internalization compared between cell lines: medians of box plots (Figure 6A); for internalization compared between peptides: medians of box plots (Figure 6A, 6B)
Description: (§1) This procedure was adapted from a previously reported protocol. Cells were incubated with TatNep, TatNepNoCPP or D-TatNepNoCPP peptides at a concentration of 10, 5 and 1 μM (see Table 1). All peptides were dissolved in a 1:4 DMSO-Water solution. Cells were incubated with each peptide for 30 min, then washed with PBS three times and fixed with 4% paraformaldehyde (Merck, Naucalpan de Juárez Edo. de Mexico, Mexico) for 30 min at room temperature. Afterwards, samples were washed with PBS three times and then incubated with 1 μg/mL of DAPI for 2 min at room temperature. For the images, 1000 cells were taken (3 replicates) by using the epifluorescent microscopy (Nikon ECLIPSE Ti-U). Due to a slight precipitation of the peptides, to avoid interference with the quantification, the 10% with the highest fluorescence intensity were considered outliers and were removed for all conditions. A total of 2700 cells remained for further analysis. Internalization analysis was performed by confocal microscopy. Cells were incubated with any of the three peptides at a concentration of 5 μM for 30 min (the fluorescence was strong and the precipitation reduced), then cell membranes were stained with the CellMask^TM Green Plasma Membrane Stain (ThermoFisher, Waltham, MA, USA) following specifications of the provider. Images were acquired with a Zeiss LSM800 microscope using the ZEN 2.6 (blue edition) software. All images were analyzed with the Fiji/ImageJ Software and are available at http://bis.ifc.unam.mx/ironbios/selmoonCPP/ (accessed on 21 July 2021).
For the mammalian cells images obtained from epifluorescence microscopy, a normality Shapiro–Wilk test was done for each individual condition (27 conditions).

[2] = tested on: HEK293T, HEK293T-NEP and HeLa cells; assay: Internalization analysis by confocal microscopy in mammalian cells; format: cell-based; details: 5 μM, 30 min, CellMask Green membrane stain
Description: as §1

HEK293T-NEP cells = assay: Internalization assay, epifluorescence microscopy; format: cell-based; details: 10 μM, 30 min, fixed cells, 2700 cells (3 replicates)
Description: HEK293T cells were transfected as previously described with the plasmid PCSC-SP-PW-Nep (Addgene, Watertown, MA, USA), which contains the human neprilysin (MME) gene. This transfection was done with the use of the reagent polyethylenimine (PEI) according to the stable transfection procedures for adherent cells. The transfected HEK293T cells were cultured with DMEM containing 10% FBS and Zeocin 400 µg/mL (ThermoFisher, Waltham, MA, USA) to select stably transfected cells, which were recovered after the third day of transfection. […]
This procedure was adapted from a previously reported protocol. […] Due to a slight precipitation of the peptides, to avoid interference with the quantification, the 10% with the highest fluorescence intensity were considered outliers and were removed for all conditions. […] Cells were incubated with any of the three peptides at a concentration of 5 μM for 30 min (the fluorescence was strong and the precipitation reduced), then cell membranes were stained with the CellMask^TM Green Plasma Membrane Stain (ThermoFisher, Waltham, MA, USA) following specifications of the provider. […] All images were analyzed with the Fiji/ImageJ Software and are available at http://bis.ifc.unam.mx/ironbios/selmoonCPP/ (accessed on 21 July 2021). […]

[3] = tested on: S. cerevisiae MATa and MATα cells; assay: Internalization in yeast cells followed by confocal microscopy; format: cell-based, Saccharomyces cerevisiae; details: 50 μM peptide, OD600 0.4, cells in 0.5% agarose, pictures every 3 min for 1 h, two sets of experiments
Description: To confirm that the fluorescence detected using the AMNIS multiphotonic microscope was the fluorescence inside cells, we carried out confocal microscopy experiments (Zeiss LSM510 META) by adapting a previous report. For that end, yeast cells for each yeast haplotype were grown overnight for 14 h in YPD (1% yeast extract (USB Corp., Cleveland, OH, USA), 2% bacto peptone (Becton, Dickinson and Company, Franklin Lakes, NJ, USA) and 2% glucose (Merck, Naucalpan de Juárez Edo. De Mexico, Mexico). Cells were then centrifuged and resuspended in YPD. An OD600 of 0.4 was used for the confocal microscopy experiments, whereas for the cytometry experiments (above) a value of 1.0 was chosen. Yeast cells were immobilized using low melting point agarose (Agarose SFR VWR Life Technologies, Radnor PA, USA) at 0.5%. The peptide concentration used for these experiments was 50 μM. Prior to performing any observations, 3 cycles of sonications (sonicator Bransonic 32) for 3 min each were performed to dissolve potential peptide aggregates. A total of 12.5 μL of yeast inoculum, 1.5 μL of TAMRA-α-NLS-C solution and 1 μL of previously heated agarose were placed on a microscope slide. […] Images were analyzed using Fiji software and the fluorescence intensity recorded for each cell was divided by the area of the corresponding cell.

[4] = tested on: S. cerevisiae MATa and MATα cells; assay: Internalization in yeast cells exposed separately, imaging flow cytometry; format: cell-based, Saccharomyces cerevisiae; details: for penetrating efficiency in MATa cells compared among the targeted CPPs: MATa exposed separately or mixed with MATα cells
Description: We adapted a previous protocol reported to analyze fluorescent single yeast cells. Briefly, cells were grown overnight and diluted to a final optical density measured at 600 nm of 1.0. A total of 116 μL of this cell dilution was mixed with 4 μL of a solution of penetrating peptide at 200 mM in a 1.5 mL plastic tube. This mixture was analyzed every 5 min for 60 min in a flux cytometer coupled to a multiphotonic microscope (Amnis ImageStream Mark II). In that equipment, 10,000 pictures were taken to record green (excitation 488 nm and emission 509 nm) and red (excitation 561 nm and emission 669 nm) fluorescence and the bright field. These images were then analyzed with the IDEAS software that is part of the Amnis equipment, to identify peptide internalization (red fluorescence). Two types of experiments were conducted; in one set, we exposed MATa and MATα cells separately to peptides α-NLS-C, NLS-α-CE and chimera (see Table 1 for a description of the peptide sequences). In another set of experiments, we exposed MATa and MATα cells mixed together to different penetrating peptides labeled with TAMRA; for this last experiment, the ribosomal protein RPL9A was fused to GFP in MATa cells, to facilitate their distinction from MATα cells. Events recorded in this way were further analyzed to discard cell debris and images that included clumps of cells. Images with a total area of 20–50 μm and an aspect ratio of 0.7 allowed us to identify events that include 1 or 2 cells; furthermore, images with less than 1500 arbitrary units of fluorescence were discarded. The data were plotted using ggplot2 from the R package. Please note that the reported experimental conditions were selected among several trials on the AMNIs equipment to identify the best conditions for these experiments.

yeast or mammalian cells = details: cited from earlier work
Text: Additionally, three other peptides were designed to test the activation strategy (see Table 1). […] For this strategy we chose the peptidase neprilysin (also known as CD10), known to be overexpressed in some types of cancer tissues. The cleavage site sequence recognized by this protease has been well characte ...

MATa cells = details: cited from earlier work
Text: In the targeted strategy, we noticed differences in penetrating efficiencies among the three targeted CPPs. […] This is observed when MATa are exposed to these peptides separately or mixed with MATα cells. […] However, if NLS-α-CE and chimera peptides would be disrupting the membrane potential of MATa cells as part of their toxic ...

HEK293T cells = assay: Internalization assay, epifluorescence microscopy; format: cell-based; details: 10 μM, 30 min, fixed cells, 2700 cells (3 replicates)
Description: as §1, with “Internalization analysis was performed by confocal microscopy.” left out, “Images were acquired with a Zeiss LSM800 microscope using the ZEN 2.6 (blue edition) software.” left out, “2021). […]” for “2021).”

[5] = epifluorescence, 10, 5 and 1 μM, 30 min

With YGRKKRRQRRRFFGFLADDDDEE [TatNepNoCPP] the “internalization, times higher than TatNep” value ([1]; average of the ratios of medians per cell line, 10 μM) was 3 times, the “internalization compared between cell lines” value [1, 5] was “HeLa > HEK293T > HEK293T-NEP” and the “internalization compared between peptides” value [1, 5] was “best internalization with respect to the other peptides for any cell line; also recorded: TatNepNoCPP > TatNep > D-TatNepNoCPP”. The pattern of fluorescence [2] was “diffused layer covering the cells” and the “ratio between medians of normalized fluorescence intensity, column peptide against row peptide TatNep” value (HEK293T-NEP cells) was 2.4.
With RLWHWLQLKPGQPMYWRQPKSKRKVRR [α-NLS-C] the “TAMRA fluorescence inside cells, MATa vs MATα” value [3] was “cells expressing the α-pheromone receptor STE2 (MATa cells) internalized more fluorescence than cells that did not express the receptor” and the “selectivity of internalization (fluorescence intensity inside cells), MATa vs MATα” value ([4]; living cells exposed separately, OD600 1.0, TAMRA-labelled peptide (4 μL of 200 mM solution in 120 μL), read every 5 min for 60 min, Amnis ImageStream, 10,000 cells per condition, repeated at least 3 times) was “more selectivity towards MATα cells than NLS-α-CE and chimera peptides”.
In the case of “5(6)-carboxytetramethyl rhodamine [TAMRA]”, the “internalization of the free fluorophore” value (yeast or mammalian cells) is given as “do not internalize”.
For “FRKWRRKPKKKRKVWWRKVKRRWHWLQLKPGQPMY [NLS-α-CE]”, the “penetrating efficiency in MATa cells compared among the targeted CPPs” value [4] is listed as “penetrate less efficiently MATa cells expressing the targeted surface protein (Ste2p) than the α-NLS-C peptide” and the “toxicity to MATa cells” value (MATa cells) is listed as “toxic to MATa cells”.
With “D-(YGRKKRRQRRRFFGFLADDDDEE) [D-TatNepNoCPP, all-D isomer of TatNepNoCPP, negative control, N-terminal TAMRA]” the “concentration dependence of internalization” value [1, 5] was “does not present a concentration dependent internalization”, the “internalization compared between peptides” value [1, 5] was “less internalized in all cell lines; also recorded: TatNepNoCPP > TatNep > D-TatNepNoCPP” and the “internalization by orthogonal projection” value [2] was “less internalization compared with the other two peptides in all three cell lines”. The pattern of fluorescence [2] was “diffused layer covering the cells”.
In the case of “YGRKKRRQRRRFFG [TatNep, peptide produced by digestion of TatNepNoCPP by neprilysin, positive control for internalization, N-terminal TAMRA]”, the “internalization compared between cell lines” value [1, 5] is reported as “internalized in HEK293T and the over-expressing HEK293T-NEP cells with the same efficiency; also recorded: HeLa cells internalized more of this peptide at 10 μM than the other cell lines”, the “internalization compared between peptides” value [1, 5] is reported as “TatNepNoCPP > TatNep > D-TatNepNoCPP” and the “ratio between medians of normalized fluorescence intensity, column peptide against row peptide D-TatNepNoCPP” value (HEK293T cells) is reported as 2.8. The “ratio between medians of normalized fluorescence intensity, column peptide against row peptide TatNepNoCPP” value (HEK293T cells) was 2.4 and the pattern of fluorescence [2] was “punctuated fluorescence”.
For “KRRWRFVWMNPKKKRKVPPWPYLLWWHWLQLKPGQPMY [Chimera]”, the “penetrating efficiency in MATa cells compared among the targeted CPPs” value [4] is listed as “penetrate less efficiently MATa cells expressing the targeted surface protein (Ste2p) than the α-NLS-C peptide” and the “toxicity to MATa cells” value (MATa cells) is listed as “toxic to MATa cells”.
